A word on the MRT: it is a mean duration of stay, worked out from the concentration-time curve.

Structures are written as SMILES. pIC50: −log10 of the molar value.

Experimental findings from US11667631B2, “FGFR4 inhibitor, preparation method therefor, and applications thereof” (Jiangsu Hansoh Pharmaceutical Group Co., Ltd., priority 2016, dated 2023) are described below.

Data set [1] relates to HuH-7 cells. Put plainly: Inhibition of HuH-7 cell proliferation (CellTiter-Glo). It is filed as cell-based. Conditions: Homo sapiens, Huh-7, 72 h, read-out: HuH-7 IC50. The procedure: In this experiment, the inhibitory effect of the compounds on HuH-7 cell proliferation was tested by a CellTiter-Glo method, and the half maximal inhibitory concentration (IC50) of the compounds on the activity of cell proliferation was determined.
1) A 96-well cell culture plate was seeded with 50˜100 μL of HuH-7 cell suspension at a density of 1˜5×10^4 cells/ml. The culture plate was incubated in an incubator for 16˜24 hours (37° C., 5% CO2).
(§1) 2) Different concentrations of the test compound in a gradient dilution were added to the cells in the culture plate. The culture plate was incubated in an incubator for 72 hours (37° C., 5% CO2).
3) 50˜100 μL of CellTiter-Glo reagent was added to each well. Then, the culture plate was shaken or left to stand for 5˜30 minutes at room temperature.
(§2) 4) The chemiluminescence signal values of each plate were determined by a microplate reader.
(§3) 5) The inhibition rates were calculated according to the chemiluminescence signal values.
(§4) 6) The IC50 of the compound was obtained by curve fitting according to the inhibition rates at different concentrations, and the cell activity of the specific example compounds is shown in Table 2.
For orientation: In ATP-based viability assays light output follows the ATP content of the culture.

The test system of data set [2] is SK-HEP-1 cells. As to the kind of experiment: Inhibition of SK-HEP-1 cell proliferation (CellTiter-Glo). It is filed as cell-based. Conditions: Homo sapiens, SK-HEP1, 72 h, read-out: SK-HEP-1 IC50. The procedure: In this experiment, the inhibitory effect of the compounds on SK-HEP-1 cell proliferation was tested by a CellTiter-Glo method, and the half maximal inhibitory concentration (IC50) of the compounds on the activity of cell proliferation was determined.
1) A 96-well cell culture plate was seeded with 50˜100 μL of SK-HEP-1 cell suspension at a density of 1˜5×10^4 cells/ml. The culture plate was incubated in an incubator for 16˜24 hours (37° C., 5% CO2).
as §1
(§5) 3) 50˜100 μL of CellTiter-Glo reagent were added to each well. Then, the culture plate was shaken or left to stand for 5˜30 minutes at room temperature.
as §2, §3, §4

Data set [3] deals with Hep 3B cells. As to the kind of experiment: Inhibition of Hep 3B cell proliferation (CellTiter-Glo). It is filed as cell-based. Conditions: Homo sapiens, Hep3B, 72 h, read-out: Hep 3B IC50, Hep 3B cell proliferation, 72 hours, CellTiter-Glo. The procedure:
In this experiment, the inhibitory effect of the compounds on Hep 3B cell proliferation was tested by a CellTiter-Glo method, and the half maximal inhibitory concentration (IC50) of the compounds on the activity of cell proliferation was determined.
1) A 96-well cell culture plate was seeded with 50˜100 μL of Hep 3B cell suspension at a density of 1˜5×10^4 cells/ml. The culture plate was incubated in an incubator for 16˜24 hours (37° C., 5% CO2).
as §1, §5, §2, §3

Data set [4] concerns the target FGFR1 kinase (Homo sapiens (Human), UniProt P11362). As to the kind of experiment: Enzymologic experiment of FGFR1 (TR-FRET). It is filed as biochemical. To be noted: FGFR1 kinase activity. How it is done: In this experiment, the inhibitory effect of the compounds on FGFR1 kinase activity was tested by a fluorescence resonance energy transfer (TR-FRET) method, and the half maximal inhibitory concentration (IC50) of the compounds on the FGFR1 kinase activity was determined.
1) 1˜5 μL of FGFR1 enzyme solution was added to a 384-well plate, and the final concentration of the enzyme was 0.1˜5 nM.
2) 1˜5 μL of diluted solution in gradient of the compound was added.
3) 1˜5 μL of a substrate mixture containing substrate polypeptide with a final concentration of 5˜50 nM and ATP with a final concentration of 10˜200 μM was added.
4) The mixture was incubated for 0.5˜3 hours at room temperature.
5) 10 μL of EDTA and a test solution comprising labeled antibody were added, and the plate was incubated for 1 hour at room temperature.
6) The fluorescence signal values of each plate were determined by a microplate reader at 665 nm.
7) The inhibition rates were calculated according to the fluorescence signal values.
8) The IC50 of the compound was obtained by curve fitting according to the inhibition rates at different concentrations, and the enzymatic activity of the specific example compounds is shown in Table 1.
Background: TR-FRET usually uses a lanthanide donor and a delayed reading to cut background.

Data set [5] can be described thus: Pharmacokinetic (PK) analysis in rats. The data set is classed as in vivo, Sprague Dawley (SD) rats. Conditions: SD rats, single intragastric administration, 5 mg/kg; for Peak Time tmax: (sampling in hours); for AUC(0-t) / AUC(0-inf) / half-life / MRT / Cmax: Sprague-Dawley, rat, plasma, po; for AUC(0-t): read-out: Area Under Curve AUC0-t; for AUC(0-inf): read-out: Area Under Curve AUC0-∞; for half-life: read-out: Half-Time t1/2 (converted); for MRT: read-out: Mean Residence Time MRT; for Cmax: read-out: Plasma Concentration Cmax. The procedure:
1) 0.2 ml of intravenous blood was collected and placed in a K2EDTA test tube. The blood was centrifuged at room temperature at the speed of 1000˜3000×g for 5˜20 minutes to isolate the plasma, which was then stored at −80° C.
2) 160 μL of acetonitrile was added to 40 μL of plasma sample for precipitation, and then the mixture was centrifuged at the speed of 500˜2000×g for 5˜20 minutes.
3) 100 μL of treated solution was taken, and the concentration of the test compound was analyzed by LC/MS/MS. The LC/MS/MS analytical instrument was AB Sciex API 4000. • Liquid chromatography analysis: • Condition of Liquid chromatography: Shimadzu LC-20AD pump • Chromatographic column: phenomenex Gemiu 5 um C18 50×4.6 mm • Mobile phase: Solution A is 0.1% formic acid aqueous solution, and Solution B is acetonitrile • Flow rate: 0.8 mL/min • Elution time: 0-3.5 minutes, the eluent was used as follows: […]

Sequence of FGFR1 kinase (P11362 22-822): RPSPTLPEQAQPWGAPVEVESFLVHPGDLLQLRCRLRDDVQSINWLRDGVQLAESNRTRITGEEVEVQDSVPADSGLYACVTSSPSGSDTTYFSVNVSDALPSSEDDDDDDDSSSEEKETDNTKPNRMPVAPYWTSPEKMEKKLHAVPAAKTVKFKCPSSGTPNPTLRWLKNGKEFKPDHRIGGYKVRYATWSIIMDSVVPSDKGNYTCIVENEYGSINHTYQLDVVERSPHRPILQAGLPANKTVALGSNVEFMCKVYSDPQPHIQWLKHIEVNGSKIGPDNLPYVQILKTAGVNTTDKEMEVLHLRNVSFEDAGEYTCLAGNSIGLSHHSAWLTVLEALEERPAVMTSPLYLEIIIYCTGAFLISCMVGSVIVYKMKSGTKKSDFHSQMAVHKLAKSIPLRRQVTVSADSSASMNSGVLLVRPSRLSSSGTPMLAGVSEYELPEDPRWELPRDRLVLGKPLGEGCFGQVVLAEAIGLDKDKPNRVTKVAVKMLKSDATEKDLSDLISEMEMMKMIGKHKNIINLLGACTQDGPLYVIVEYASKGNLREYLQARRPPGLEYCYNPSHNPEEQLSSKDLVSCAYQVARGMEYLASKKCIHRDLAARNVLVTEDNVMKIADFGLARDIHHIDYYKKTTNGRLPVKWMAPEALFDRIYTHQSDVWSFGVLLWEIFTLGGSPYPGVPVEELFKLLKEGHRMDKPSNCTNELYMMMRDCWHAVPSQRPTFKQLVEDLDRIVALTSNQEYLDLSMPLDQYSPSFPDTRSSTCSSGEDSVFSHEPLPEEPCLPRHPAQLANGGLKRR

Turning to `CO[C@@H]1CCN(c2cc(NC(=O)N3CCCc4cc(CN5CCOC5=O)c(C=O)nc43)ncc2C#N)C1` [Example 41, (R)-N-(5-Cyano-4-(3-methoxypyrrolidin-1-yl)pyridin-2-yl)-7-formyl-6-((2-carbonyloxazolidin-3-yl)methyl)-3,4-dihydro-1,8-naphthyridin-1(2H)-carboxamide], in data set [1], the pIC50 was 7.99. In data set [2], the pIC50 was under 5.00. The pIC50 in data set [3] is 8.00. Besides, the pIC50 in data set [4] is under 5.00. Besides, in data set [5], the Peak Time tmax came out at 2 h, the AUC(0-t) was found to be 2880 ng·h/mL, the AUC(0-inf) amounted to 2960 ng·h/mL and the half-life is 1.17 h. Besides, in data set [5], the mean residence time MRT stood at 3.12 h and the Cmax amounted to 1920 ng/mL.
As for `CO[C@H]1CCN(c2cc(NC(=O)N3CCCc4cc(CN5CCOCC5=O)c(C=O)nc43)ncc2C#N)C1` [Example 51, (S)-N-(5-Cyano-4-(3-methoxypyrrolidin-1-yl)pyridin-2-yl)-7-formyl-6-((3-carbonylmorpholino)methyl)-3,4-dihydro-1,8-naphthyridin-1(2H)-carboxamide], the pIC50 in data set [1] was 7.56. In addition, in data set [2], the pIC50 is under 5.00. For the same molecule, the pIC50 in data set [3] was 7.60. In data set [4], the pIC50 is under 5.00. Further, in data set [5], the Peak Time tmax was determined as 2 h, the AUC(0-t) was 3720 ng·h/mL, the AUC(0-inf) turned out to be 3730 ng·h/mL and the half-life was 1.15 h. Besides, in data set [5], the MRT is 3.84 h and the Cmax worked out at 1020 ng/mL.
Regarding `CO[C@@H]1CCC[C@H]1Nc1cc(NC(=O)N2CCCc3cc(CN4CCOCC4=O)c(C=O)nc32)ncc1C#N` [Example 60, N-(5-Cyano-4-(((1R,2R)-2-methoxycyclopentyl)amino)pyridin-2-yl)-7-formyl-6-((3-carbonylmorpholino)methyl)-3,4-dihydro-1,8-naphthyridin-1(2H)-carboxamide], the pIC50 in data set [1] is 8.57. In data set [2], the pIC50 was under 5.00. Moreover, in data set [3], the pIC50 is 9.00. The pIC50 in data set [4] was under 5.00. In data set [5], the Peak Time tmax was determined as 2 h, the AUC(0-t) came out at 3770 ng·h/mL, the AUC(0-inf) is 3790 ng·h/mL and the half-life was 0.88 h. In data set [5], the MRT worked out at 2.26 h and the Cmax was determined as 1300 ng/mL.
In the case of `CO[C@@H]1CCC1Oc1cc(NC(=O)N2CCCc3cc(CN4CCOCC4=O)c(C=O)nc32)ncc1C#N` (stereo partly drawn) [Example 61, N-(5-Cyano-4-trans-((1,2)-2-methoxycyclobutoxy)pyridin-2-yl)-7-formyl-6-((3-carbonylmorpholino)methyl)-3,4-dihydro-1,8-naphthyridin-1(2H)-carboxamide], the pIC50 in data set [1] was 8.21. For the same molecule, in data set [2], the pIC50 was under 5.00. Further, in data set [3], the pIC50 is 8.43. This molecule also had a pIC50 in data set [4] of under 5.00. Further, in data set [5], the Peak Time tmax turned out to be 2 h, the AUC(0-t) came to 2110 ng·h/mL, the AUC(0-inf) came out at 2120 ng·h/mL and the half-life is 0.75 h. Moreover, in data set [5], the MRT worked out at 2.96 h and the Cmax was determined as 2640 ng/mL.
For `CO[C@H]1CCC1Oc1cc(NC(=O)N2CCCc3cc(CN4CCOCC4=O)c(C=O)nc32)ncc1C#N` (stereo partly drawn) [Example 62, N-(5-Cyano-4-cis-((1,2)-2-methoxycyclobutoxy)pyridin-2-yl)-7-formyl-6-((3-carbonylmorpholino)methyl)-3,4-dihydro-1,8-naphthyridin-1(2H)-carboxamide], in data set [1], the pIC50 was 8.38. The pIC50 in data set [2] was under 5.00. In addition, the pIC50 in data set [3] is 8.47. This molecule also had a pIC50 in data set [4] of under 5.00. Besides, in data set [5], the Peak Time tmax came out at 2 h, the AUC(0-t) amounted to 4020 ng·h/mL, the AUC(0-inf) worked out at 4060 ng·h/mL and the half-life is 0.85 h. In addition, in data set [5], the MRT was 2.98 h and the Cmax was determined as 2810 ng/mL.
